The source of these data is patent US20170172955A1, “Treatment of Mixed Dyslipidemia” (priority 2015, published 2017).

SMILES strings stand for the structures. Like-named read-outs stand apart in the source and are kept apart here.

One assay has as its target CYP2C9 (Homo sapiens, UniProt P11712). In words: biochemical. The procedure:
(§1) Human livers, HLM141, HLM143, and HLM144 were selected from the University of Washington Human Liver Bank for this study. […] The actual concentrations used for each of the other probes are specified below. […] The seven isoforms and the metabolic pathway of each of the probes used to monitor specific isoform activity are listed below.
CYP2C9: The 7-hydroxylation of (S)-warfarin (4 μM). The reaction is monitored by quantitative GC/MS using 7-hydroxywarfarin-(d5-phenyl) as the internal standard.

In the next assay the target is CYP3A4 (Homo sapiens, UniProt P08684). Briefly: biochemical. The procedure:
as §1
CYP3A4: The 10-hydroxylation of (R)-warfarin (0.5 mM). The reaction is monitored by quantitative GC/MS using 10-hydroxywarfarin-(d5-phenyl) as the internal standard.

For a further assay, the system named is primary rat hepatocytes. In words: Cholesterol and triglyceride synthesis ([14C]acetate) in primary rat hepatocyte cultures. In kind it is cell-based. To be noted: for % Change in Synthesis, Cholesterol ± SEM / % Change in Synthesis, Triglyceride ± SEM: relative to vehicle cells. The procedure: At end of labeling period, cells were washed with room temperature D-PBS, 2.0 mL per well and the reaction is stopped with 1.0 mL 0.75 N HCl. Cells were scraped and transferred to 15×45 mm glass vial (1 dram size). Wells were washed with 1.0 mL of methanol and added to scraped cells, followed by the addition of 2.0 mL of chloroform. Vials were capped and vortexed for 5 seconds and centrifuged in a Beckman GS 6KR centrifuge at 3,600 rpm for 15 minutes at room temperature to separate phases. The bottom chloroform phase was transferred to new 15×45 mm glass vial, dried down in a […] evaporator at 37° C. under nitrogen gas. Vials were cooled to room temperature and samples resuspended in 130 μL of n-heptane:chloroform, 4:1 by vortexing for 5 seconds. […] Plates were dried for 30 minutes in an 80° C. gravity convection oven, cooled to room temperature, and wrapped in SaranTM Wrap. Plates were exposed overnight to phosphorimager plates, scanned on Typhoon PhosporImager (Molecular Dynamics), and analyzed using Imagequant software (Molecular Dynamics).

Chain of CYP2C9 (P11712 whole entry, canonical isoform): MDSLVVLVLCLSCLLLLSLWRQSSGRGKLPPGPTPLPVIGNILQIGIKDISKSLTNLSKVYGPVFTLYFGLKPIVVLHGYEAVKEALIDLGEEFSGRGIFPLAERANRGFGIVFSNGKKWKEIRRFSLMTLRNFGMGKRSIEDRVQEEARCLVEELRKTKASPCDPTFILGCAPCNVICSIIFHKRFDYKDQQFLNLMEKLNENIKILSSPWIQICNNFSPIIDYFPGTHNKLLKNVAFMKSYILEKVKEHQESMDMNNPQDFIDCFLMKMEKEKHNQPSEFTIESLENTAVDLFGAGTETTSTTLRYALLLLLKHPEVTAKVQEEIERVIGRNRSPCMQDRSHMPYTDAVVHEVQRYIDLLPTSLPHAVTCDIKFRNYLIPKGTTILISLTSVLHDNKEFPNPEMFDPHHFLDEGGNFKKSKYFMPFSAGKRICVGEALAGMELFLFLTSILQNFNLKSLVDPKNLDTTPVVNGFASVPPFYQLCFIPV
Chain of CYP3A4 (P08684 whole entry): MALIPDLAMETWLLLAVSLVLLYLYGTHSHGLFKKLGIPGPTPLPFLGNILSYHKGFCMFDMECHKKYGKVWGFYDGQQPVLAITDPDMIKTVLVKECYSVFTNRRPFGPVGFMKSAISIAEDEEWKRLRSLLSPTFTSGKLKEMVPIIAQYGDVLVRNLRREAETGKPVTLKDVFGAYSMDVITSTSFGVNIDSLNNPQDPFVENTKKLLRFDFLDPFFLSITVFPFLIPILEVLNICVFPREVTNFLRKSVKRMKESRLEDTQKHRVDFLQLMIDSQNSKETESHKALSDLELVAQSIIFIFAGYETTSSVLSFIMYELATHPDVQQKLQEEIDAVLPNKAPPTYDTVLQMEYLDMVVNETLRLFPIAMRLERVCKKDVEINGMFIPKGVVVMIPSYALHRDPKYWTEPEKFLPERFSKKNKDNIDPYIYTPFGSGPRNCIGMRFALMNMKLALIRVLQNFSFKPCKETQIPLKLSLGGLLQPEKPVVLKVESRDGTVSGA

As for `CC(C)(CCCCOCCCCC(C)(C)C(=O)O)C(=O)O` [Gemcabene, 6,6′-oxybis(2,2-dimethylhexanoic acid)], the IC50 against CYP2C9 was greater than 1.5 mM; at CYP2C9 (human, microsomes), greater than 1.5 mM; against CYP3A4, greater than 1.5 mM; on CYP3A4 (human, microsomes), greater than 1.5 mM. The “decrease of cholesterol synthesis (± SEM)” value in the assay with primary rat hepatocytes (10 μM) came out at 61.5±1.8%; with primary rat hepatocytes (30 μM) it was 90.0±0.8%. In addition, the figures for the “reduction of triglyceride synthesis” value in the assay with primary rat hepatocytes (10 μM) and in the assay on primary rat hepatocytes (30 μM) were 8.9±4.5% and 72.1±2.9%, respectively. The results for the “% Change in Synthesis, Cholesterol ± SEM” value in the assay with primary rat hepatocytes (10 μM) and with primary rat hepatocytes (30 μM) were −61.5 ± 1.8% and −90.0 ± 0.8%, respectively. Moreover, the “% Change in Synthesis, Triglyceride ± SEM” value in the assay on primary rat hepatocytes (10 μM) is recorded as −8.9 ± 45%^ns; in the assay with primary rat hepatocytes (30 μM) it was −72.1 ± 2.9%.
